From US20210395652A1, “TEXTILE TREATMENT COMPOSITIONS” (priority 2020, published 2021)
Like-named read-outs stand apart in the source and are kept apart here.

How the values were obtained:
[1] = test system: NCTC clone 1469 cells; experiment: Cytotoxicity control of the treated fabric test; assay type: cell-based, mouse; details: Formaldehyde control
Experimental: Controls were untreated fabric pieces of the same size. After incubation with the virus for 15, 30 or 60 minutes the samples were neutralized with D/E broth, vortexed to remove the virus from the fabric and passed over a Sephadex LH-20 column to remove potential cytotoxic substances. Serial dilutions of the column eluates were used to inoculate NCTC clone 1469 cells in a 96 well plate to determine the TCID50 for the virus at each time. After 14 days the wells were examined for cytopathological effects (CPE) in the cells and scored accordingly.

[2] = test system: NCTC clone 1469 cells; details: mouse, pH 7.3

## C=O [Formaldehyde]
[1]
  dilution to which all cells were killed: killed all cells to the 10^−2 dilution
[2]
  dilution to which all cells were killed: killed all cells to the 10^4 dilution
